Experimental data from US20030124616A1, “Homocysteinylated transthyretin” (priority 2001, published 2003).

What was measured:
human plasma fibronectin [1] = test: Binding of 35S-L-homocysteine and 35S-L-cysteine to fibronectin (SDS-PAGE, phosphorimaging); conditions: 500 μmol/L, 5 hours at 37° C.
Experimental: (§1) ^35S-L-homocysteine (500 μmol/L final concentration) was added to either human plasma fibronectin (1 mg/mL, 0.05 mol/L TES buffer, pH 7.4) or human plasma diluted 1:1 with 0.05 mol/L TES buffer, pH 7.4 and incubated under aerobic conditions for 5 hours at 37° C. with continuous shaking. Separate samples of human plasma and fibronectin were incubated with ^35S-L-cysteine (1,000 Ci/mmol) (New England Nuclear, Boston, Mass.) which was first diluted with cold L-cysteine (in 1 mol/L TES buffer, pH 7.4) to obtain a specific activity equal to that of the synthesized ^35S-L-homocysteine. The final concentrations of L-cysteine and TES in the reaction mixture was 500 μmol/L and 0.05 mol/L respectively and the incubation was carried out as described above for L-homocysteine. The bound radioactive homocysteine was detected by SDS-PAGE of the samples followed by phosphorimage analysis (Molecular Dynamics Inc., Sunnyvale, Calif.).
(§2) Samples were combined with SDS-PAGE sample buffer (62.5 mmol/L Tris-HCl, pH 6.8, 2% SDS, 10% glycerol, 0.02% bromophenol blue) and aliquots of some samples were reduced with 2-mercaptoethanol and heated to 100° C. for 5 minutes. The samples were loaded onto 4-20% precast gradient gels (Z Axis, Hudson, Ohio) and electrophoresed using the method of Laemmli. […]

[2] = biological target: T1, human transthyretin (TTR) (Homo sapiens, UniProt P02766); test: Radiolabeling and SDS-PAGE of human plasma and purified transthyretin with 35S-L-homocysteine; format: binding; conditions: 0.5 mM, 5 h, label lost with β-mercaptoethanol
T1 construct: Plasma TTR is a 127 amino acid protein containing a single cysteine residue at position 10; purchased Sigma
Experimental: ^35S-L-Homocysteine was incubated with 50% human plasma in 0.05 M TES buffer (pH 7.4), or with purified human transthyretin (1 mg/ml in water) for 5 h at 37 C. Protein was then precipitated with 1.5 M perchloric acid and washed three times with 1.5 M perchloric acid. The final pellet was solubilized in SDS-PAGE sample buffer with and without reduction by β-mercaptoethanol. After treatment at 100 C. for 10 min, aliquots were subjected to analysis by SDS-PAGE using a 10% gel. The gel was stained with Coomassie blue, dried and subjected to phosphorimaging to detect ^35S- labeled proteins.
In FIG. 1, ^35S-L-Homocysteine (0.5 mM) was incubated with 50% human plasma in 0.05M TES buffer (pH 7.4) and with commercially available human transthyretin from Sigma (1 mg/mL in water) for 5 hours at […]. Following the incubation, protein was precipitated with 1.5M perchloric acid and solubilized with SDS-PAGE sample buffer. Aliquots were subjected to analysis by SDS-PAGE using a 10% gel without (see lanes 1 and 2 in FIG. 1) and with reduction by β-mercaptoethanol followed by heating at 100° C. for 10 minutes (see lanes 3 and 4 in FIG. 1). The gel was strained with Coomassie blue, dried and subjected to phosphorimaging to detect ^35S-labeled proteins. […]

albumin = biological target: T2, albumin (Homo sapiens, UniProt P02768); test: Binding of 35S-L-homocysteine and 35S-L-cysteine to plasma proteins (SDS-PAGE, phosphorimaging); conditions: 500 μmol/L, plasma diluted 1:1 with TES buffer
T2 construct: from tissue; host or cells: human plasma
T2 sequence (P02768 25-609): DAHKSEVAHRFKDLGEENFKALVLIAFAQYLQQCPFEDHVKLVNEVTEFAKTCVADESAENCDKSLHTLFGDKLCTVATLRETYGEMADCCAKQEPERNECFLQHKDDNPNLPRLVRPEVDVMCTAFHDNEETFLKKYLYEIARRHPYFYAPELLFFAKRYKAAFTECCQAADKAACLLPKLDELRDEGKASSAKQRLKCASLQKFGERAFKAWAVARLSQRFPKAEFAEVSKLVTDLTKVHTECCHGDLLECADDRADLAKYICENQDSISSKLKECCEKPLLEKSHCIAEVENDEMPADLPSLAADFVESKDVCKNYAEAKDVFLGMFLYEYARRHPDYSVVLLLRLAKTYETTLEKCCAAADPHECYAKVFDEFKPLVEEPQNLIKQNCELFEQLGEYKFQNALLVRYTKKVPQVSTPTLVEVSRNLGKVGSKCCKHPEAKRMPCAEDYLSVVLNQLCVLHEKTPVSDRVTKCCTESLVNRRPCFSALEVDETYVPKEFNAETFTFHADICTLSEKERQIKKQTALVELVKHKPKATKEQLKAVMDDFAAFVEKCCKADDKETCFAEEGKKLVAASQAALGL
Experimental: as §1, §2

human plasma fibronectin [3] = test: Stoichiometry of 35S-L-homocysteine binding to fibronectin (scintillation counting)
Experimental: The human plasma fibronectin purified by affinity chromatography described above was used in these studies. Purity was assessed by SDS-PAGE as described below. Purified fibronectin (200 μg/mL) was incubated with various concentrations (up to 500 μmol/L) of ^35S-L-homocysteine for up to 10 hours at 37° C. Unbound homocysteine was removed by precipitating the fibronectin with 5% trichloroacetic acid containing 0.5% tannic acid using transferrin as a carrier protein. The precipitated fibronectin was washed 3 times with the trichloroacetic acid/tannic acid, resuspended in 0.1 N NaOH and an aliquot subjected to scintillation counting.

Row | Structure (SMILES) | binding to fibronectin in plasma or purified fibronectin (human plasma fibronectin [1]) | reaction with TTR (labeling of TTR dimer and tetramer) [2] | binding to albumin in human plasma (albumin) | time for binding to fibronectin to reach equilibrium (human plasma fibronectin [3]; 500 μmol/L homocysteine) [h] | maximum homocysteine bound per mole of dimeric fibronectin (human plasma fibronectin [3]; up to 500 μmol/L homocysteine, 37° C.) [mol]
1 | N[C@@H](CCS)C(=O)O [L-homocysteine] | bound via a disulfide linkage | readily reacts with the Cys^10 position of TTR | most of the radioactivity in the plasma was associated with albumin | ≤ 5 | 5
2 | N[C@@H](CS)C(=O)O [L-cysteine] | did not bind | – | bound to albumin | – | –
